“And” between values parts separate entries of the source, which are not always exact repeats. Equal entries are not always repeated.
System: ANGIOTENSIN II (AII) VASOPRESSOR RESPONSE
Assay: AII Challenge: angiotensin II (AII) vasopressor response in conscious rats
Format: in vivo
Design: Response After AII / Change / Average Change: unit not given here
Conditions: 10 mg/kg i.v.; for Change / Response After AII / Control Before AII: individual rat; for Control Before AII: in mmHg (unit assumed); for % Inhibition / Average Change: n = 2
Text: By administering a compound of this invention to a rat, and then challenging with angiotensin II, a blockage of the vasopressor response is realized.
Conscious Male Okamoto-Aoki SHR, 16-20 weeks old, weighing approximately 330 g are purchased from Charles River Labs (Wilmington, Mass.). Conscious rats are restrained in a supine position with elastic tape. The area at the base of the tail is locally anesthetized by subcutaneous infiltration with 2% procaine. The ventral caudal artery and vein are isolated, and a cannula made of polyethylene (PE) 10-20 tubing (fused together by heat) is passed into the lower abdominal aorta and vena cava, respectively. The cannula is secured, heparinized (1,000 I.U./ml), sealed and the wound is closed. The animals are placed in plastic restraining cages in an upright position. The cannula is attached to s Statham P23Db pressure transducer, and pulsatile blood pressure is recorded to 10-15 minutes with a Gould Brush recorder. (Chan et al., (Drug Development Res., 18:75-94, 1989).
Angiotensin II (human sequence, Sigma Chem. Co., St. Louis, Mo.) of 0.05 and 0.1 ug/kg i.v. is injected into all rats (predosing response.). Then a test compound, vehicle or a known angiotensin II antagonist is administered i.v., i.p. or orally to each set of rats. The two doses of angiotensin II are given to each rat again at 30, 60, 90, 120, 180, 240 and 300 minutes post dosing the compound or vehicle. The vasopressor response of angiotensin II by a compound is calculated using the vasopressor response (increase in systolic blood pressure) of angiotensin II of each rat predosing the compound as 100%. A compound is considered active if at 30 mg/kg i.v. it antagonized at least 50% of the response.

[1] = AII 0.05 mcg/kg, 30 min post dose
[2] = AII 0.05 mcg/kg, 30 min post dose, listed as Ex. 11
[3] = AII 0.05 mcg/kg, 60 min post dose, listed as Ex. 11
[4] = AII 0.05 mcg/kg, 60 min post dose
[5] = AII 0.05 mcg/kg, 90 min post dose
[6] = AII 0.05 mcg/kg, 90 min post dose, listed as Ex. 11
[7] = AII 0.05 mcg/kg, 120 min post dose
[8] = AII 0.05 mcg/kg, 120 min post dose, listed as Ex. 11
[9] = AII 0.05 mcg/kg, 180 min post dose
[10] = AII 0.05 mcg/kg, 180 min post dose, listed as Ex. 11
[11] = AII 0.05 mcg/kg, 240 min post dose
[12] = AII 0.05 mcg/kg, 240 min post dose, listed as Ex. 11
[13] = AII 0.05 mcg/kg, 300 min post dose
[14] = AII 0.05 mcg/kg, 300 min post dose, listed as Ex. 11
[15] = AII 0.1 mcg/kg, 30 min post dose
[16] = AII 0.1 mcg/kg, 30 min post dose, listed as Ex. 11
[17] = AII 0.1 mcg/kg, 60 min post dose
[18] = AII 0.1 mcg/kg, 90 min post dose
[19] = AII 0.1 mcg/kg, 90 min post dose, listed as Ex. 11
[20] = AII 0.1 mcg/kg, 120 min post dose
[21] = AII 0.1 mcg/kg, 120 min post dose, listed as Ex. 11
[22] = AII 0.1 mcg/kg, 180 min post dose
[23] = AII 0.1 mcg/kg, 240 min post dose
[24] = AII 0.1 mcg/kg, 240 min post dose, listed as Ex. 11
[25] = AII 0.1 mcg/kg, 300 min post dose
[26] = AII 0.1 mcg/kg, 300 min post dose, listed as Ex. 11

In the case of `CCCCc1nc2cc(-c3ccco3)nn2c(=O)n1Cc1ccc(-c2ccccc2-c2nnn[nH]2)cc1` [Example 11, 2-Butyl-7-(2-furanyl)-3-[[2'-(1H-tetrazol-5-yl)[1,1'-biphenyl]-4-yl]methyl]pyrazolo[1,5-a]-1,3,5-triazin-4(3H)-one], the Change [1] is reported as 0, the “Response After AII” value [1] is reported as 200 and the “Response After AII” value [2] is reported as 205. The “Control Before AII” value [2] was 200 and 205, the “% Inhibition” value [1] was 100% and the “Average Change” value [1] was 0. The Change [3] was 13 and 5, the “Response After AII” value [3] was 198 and 200 and the “Control Before AII” value [3] was 185 and 195. The “% Inhibition” value [4] was 76%, the “Average Change” value [4] was 9 and the “Response After AII” value [5] was 200. The Change [6] was 10 and 15, the “Control Before AII” value [6] was 190 and 185 and the “% Inhibition” value [5] was 67%. The “Average Change” value [5] was 12.5, the “Response After AII” value [7] was 195 and the “Control Before AII” value [7] was 185. For the same compound, the Change [8] was 20 and 10, the “Response After AII” value [8] was 205 and the “% Inhibition” value [7] was 60%. For the same compound, the “Average Change” value [7] was 15, the “Response After AII” value [9] was 195 and the “Control Before AII” value [9] was 185. For the same compound, the Change [10] was 10 and 20, the “Response After AII” value [10] was 205 and the “% Inhibition” value [9] was 60%. The “Average Change” value [9] was 15, the “Control Before AII” value [11] was 185 and the Change [12] was 25 and 15. The “Response After AII” value [12] was 210 and 200, the “% Inhibition” value [11] was 47% and the “Average Change” value [11] was 20. The “Control Before AII” value [13] was 185, the Change [14] was 30 and 20 and the “Response After AII” value [14] was 215 and 205. The “% Inhibition” value [13] was 33%, the “Average Change” value [13] was 25 and the “Response After AII” value [15] was 192. For the same compound, the Change [16] was 2 and 0, the “Response After AII” value [16] was 205 and the “Control Before AII” value [16] was 190 and 205. For the same compound, the “% Inhibition” value [15] was 98%, the “Average Change” value [15] was 1 and the Change [17] was 10. For the same compound, the “Response After AII” value [17] was 205, the “Control Before AII” value [17] was 195 and the “% Inhibition” value [17] was 79%. The “Average Change” value [17] was 10, the “Response After AII” value [18] was 210 and the “Control Before AII” value [18] was 190. For the same compound, the Change [19] was 20 and 15, the “Response After AII” value [19] was 205 and the “% Inhibition” value [18] was 63%. For the same compound, the “Average Change” value [18] was 17.5, the “Response After AII” value [20] was 200 and the “Control Before AII” value [20] was 185. The Change [21] was 20 and 15, the “Response After AII” value [21] was 205 and the “% Inhibition” value [20] was 63%. The “Average Change” value [20] was 17.5, the Change [22] was 25 and the “Response After AII” value [22] was 210. For the same compound, the “Control Before AII” value [22] was 185, the “% Inhibition” value [22] was 47% and the “Average Change” value [22] was 25. For the same compound, the “Response After AII” value [23] was 210, the “Control Before AII” value [23] was 185 and the Change [24] was 30 and 25. The “Response After AII” value [24] was 205, the “Control Before AII” value [24] was 175 and the “% Inhibition” value [23] was 42%. For the same compound, the “Average Change” value [23] was 27.5, the “Response After AII” value [25] was 210 and the “Control Before AII” value [25] was 185. The Change [26] was 25 and 30, the “Response After AII” value [26] was 215 and the “% Inhibition” value [25] was 42%. For the same compound, the “Average Change” value [25] was 27.5.

— patent US5358947A, “Angiotensin II receptor blocking 2,3-substituted pyrazolo[1,5-a]-1,3,5-triazin-4(3H)-ones” (American Cyanamid Company, priority 1993, dated 1994)
